From article PMC7782793, “Hydroxamic acid-modified peptide microarrays for profiling isozyme-selective interactions and inhibition of histone deacetylases” (Nature Communications, 2021)
Where “and” joins values, the source holds several entries; their conditions need not be identical. Equal entries are not always repeated. Marks after values point to notes of the source that are not given here. Non-standard residues stand in square brackets, D forms with d. Residues, ends and D or L forms follow the SMILES beside them. *: point of attachment. Asu = N[C@@H](CCCCCC(=O)O)C(=O)O; NHOH = ON*

Experiments:
[1] = molecular target: T1, HDAC1 (Homo sapiens, UniProt Q13547); test: Recombinant HDAC µSPOT microarray binding assay;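 further: slides with spotted peptides incubated with six HDAC concentrations in HEPES buffer pH 7.4, spot intensities fitted by four-parameter logistic, EC50 as enzyme concentration giving half-maximal binding signal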
T1 construct: HDAC1 (full length, C-terminal His tag, C-terminal FLAG tag, BPS Bioscience, cat. #: 50051); FLAG (C); purchased BPS Bioscience 50051

[2] = molecular target: T2, HDAC2 (Homo sapiens, UniProt Q92769); test: Recombinant HDAC µSPOT microarray binding assay;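 further: Cellulose-bound peptide spots on slides incubated with six HDAC enzyme concentrations, binding intensity read, four-parameter variable-slope fit, EC50 is enzyme concentration giving half-maximal binding, in HEPES buffer pH 7.4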
T2 construct: HDAC2 (full length, C-terminal His tag, BPS Bioscience, cat. #: 50002); purchased BPS Bioscience 50002

[3] = molecular target: T3, HDAC3/NCoR2 (Homo sapiens, UniProt O15379); test: Recombinant HDAC µSPOT microarray binding assay;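 further: peptide spots on cellulose slides incubated with rising HDAC enzyme concentrations, imaged together, four-parameter logistic fit, EC50 is enzyme concentration giving half-maximal binding signal, two experiments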
T3 construct: HDAC3/NCoR2 (full length, C-terminal His tag, NCoR2 N-terminal GST tag); purchased BPS Bioscience 50003

[4] = molecular target: T4, HDAC8 (Homo sapiens, UniProt Q9BY41); test: Recombinant HDAC µSPOT microarray binding assay;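 further: peptide µSPOT slides incubated with varying HDAC enzyme concentrations, imaged signal intensity fitted by four-parameter variable-slope regression, EC50 is enzyme concentration giving half-maximal binding, pH 7.4 HEPES buffer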
T4 construct: HDAC8 (full length, C-terminal His tag, BPS Bioscience, cat. #: 50008); purchased BPS Bioscience 50008
T4 sequence (Q9BY41 1-377): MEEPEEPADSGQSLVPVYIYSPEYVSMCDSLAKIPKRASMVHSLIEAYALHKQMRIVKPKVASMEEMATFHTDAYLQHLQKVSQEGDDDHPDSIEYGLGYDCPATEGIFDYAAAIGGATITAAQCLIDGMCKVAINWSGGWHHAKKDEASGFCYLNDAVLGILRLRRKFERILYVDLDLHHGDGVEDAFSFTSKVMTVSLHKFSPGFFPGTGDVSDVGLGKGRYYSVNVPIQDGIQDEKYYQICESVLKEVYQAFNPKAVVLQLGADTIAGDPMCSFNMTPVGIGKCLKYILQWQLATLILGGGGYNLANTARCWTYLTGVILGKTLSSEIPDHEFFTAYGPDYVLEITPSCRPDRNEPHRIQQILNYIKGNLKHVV

[5] = molecular target: T1, HDAC1; test: HDAC inhibition assay (fluorogenic, Ac-Leu-Gly-Lys(Ac)-AMC); format: biochemical; conditions: for HDAC1 dose-response data (relative enzyme activity), Fig. 6 + S. Fig. 10: duplicate columns
[6] = molecular target: T2, HDAC2; test: as above; format: biochemical; conditions: for HDAC2 dose-response data (relative enzyme activity), Fig. 6 + S. Fig. 10: duplicate columns
[7] = molecular target: T3, HDAC3/NCoR2; test: as above; format: biochemical; conditions: for HDAC3 dose-response data (relative enzyme activity), Fig. 6 + S. Fig. 10: duplicate columns
[8] = molecular target: T4, HDAC8; test: HDAC inhibition assay (fluorogenic, Ac-Leu-Gly-Lys(Tfa)-AMC); format: biochemical; conditions: for HDAC8 dose-response data (relative enzyme activity, replicate values), Fig. 6 + S. Fig. 10: two replicate columns per inhibitor; for HDAC8 dose-response data (relative enzyme activity), Fig. 6 + S. Fig. 10: duplicate columns
[9] = molecular target: T5, HDAC6 (Homo sapiens, UniProt Q9UBN7); test: HDAC inhibition assay (fluorogenic, Ac-Leu-Gly-Lys(Ac)-AMC); format: biochemical; conditions: HDAC6, replicates
T5 construct: HDAC6 (full length, BPS Bioscience, cat. #: 50056); purchased BPS Bioscience 50056
T5 sequence (Q9UBN7 1-1215): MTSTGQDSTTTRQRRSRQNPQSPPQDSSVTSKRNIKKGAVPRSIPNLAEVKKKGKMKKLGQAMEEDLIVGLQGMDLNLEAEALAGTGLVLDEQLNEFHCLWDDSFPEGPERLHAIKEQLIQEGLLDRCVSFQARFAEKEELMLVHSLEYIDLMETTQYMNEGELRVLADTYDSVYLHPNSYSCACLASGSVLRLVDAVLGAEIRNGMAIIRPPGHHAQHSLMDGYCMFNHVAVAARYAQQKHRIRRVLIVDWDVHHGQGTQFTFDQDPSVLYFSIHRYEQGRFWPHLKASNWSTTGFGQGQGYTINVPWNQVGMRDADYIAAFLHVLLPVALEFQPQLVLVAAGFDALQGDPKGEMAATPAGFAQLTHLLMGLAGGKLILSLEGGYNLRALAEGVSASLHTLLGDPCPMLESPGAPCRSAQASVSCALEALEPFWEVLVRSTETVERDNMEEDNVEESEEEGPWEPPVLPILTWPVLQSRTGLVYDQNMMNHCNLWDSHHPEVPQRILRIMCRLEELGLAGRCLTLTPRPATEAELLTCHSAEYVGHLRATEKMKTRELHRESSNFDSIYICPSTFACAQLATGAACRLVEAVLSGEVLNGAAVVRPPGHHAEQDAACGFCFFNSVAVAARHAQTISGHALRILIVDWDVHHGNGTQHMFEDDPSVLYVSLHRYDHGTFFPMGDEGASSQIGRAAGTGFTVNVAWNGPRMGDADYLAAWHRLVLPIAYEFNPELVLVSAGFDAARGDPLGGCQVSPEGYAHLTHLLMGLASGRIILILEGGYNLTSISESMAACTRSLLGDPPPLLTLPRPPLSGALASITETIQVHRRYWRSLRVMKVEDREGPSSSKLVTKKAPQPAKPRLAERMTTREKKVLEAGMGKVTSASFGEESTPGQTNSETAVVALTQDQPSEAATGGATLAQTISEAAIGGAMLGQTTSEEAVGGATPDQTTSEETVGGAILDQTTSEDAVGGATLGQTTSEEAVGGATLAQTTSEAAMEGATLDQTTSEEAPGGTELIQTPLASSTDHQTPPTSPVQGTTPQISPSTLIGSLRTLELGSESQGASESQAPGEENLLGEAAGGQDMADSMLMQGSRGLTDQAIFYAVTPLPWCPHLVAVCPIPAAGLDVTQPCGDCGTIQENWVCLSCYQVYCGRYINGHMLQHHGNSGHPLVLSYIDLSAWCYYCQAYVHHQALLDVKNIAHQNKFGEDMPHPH

[10] = log[inhibitor(M)] -10,5850266520292*, whole line marked with asterisks

T2 sequence (Q92769 whole entry): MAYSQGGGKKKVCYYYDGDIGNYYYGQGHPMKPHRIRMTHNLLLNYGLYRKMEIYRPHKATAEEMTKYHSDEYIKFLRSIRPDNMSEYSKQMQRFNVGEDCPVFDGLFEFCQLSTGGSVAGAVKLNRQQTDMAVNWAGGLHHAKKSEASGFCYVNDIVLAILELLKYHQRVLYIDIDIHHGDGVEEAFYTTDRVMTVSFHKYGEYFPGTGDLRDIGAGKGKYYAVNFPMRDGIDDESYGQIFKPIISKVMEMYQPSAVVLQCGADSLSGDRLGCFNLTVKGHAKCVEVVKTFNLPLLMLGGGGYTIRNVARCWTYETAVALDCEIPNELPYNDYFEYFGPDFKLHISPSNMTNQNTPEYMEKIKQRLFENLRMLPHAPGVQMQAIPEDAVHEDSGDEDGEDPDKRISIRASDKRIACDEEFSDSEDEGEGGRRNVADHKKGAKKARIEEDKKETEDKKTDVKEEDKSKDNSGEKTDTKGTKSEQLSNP
T1 sequence (Q13547 whole entry): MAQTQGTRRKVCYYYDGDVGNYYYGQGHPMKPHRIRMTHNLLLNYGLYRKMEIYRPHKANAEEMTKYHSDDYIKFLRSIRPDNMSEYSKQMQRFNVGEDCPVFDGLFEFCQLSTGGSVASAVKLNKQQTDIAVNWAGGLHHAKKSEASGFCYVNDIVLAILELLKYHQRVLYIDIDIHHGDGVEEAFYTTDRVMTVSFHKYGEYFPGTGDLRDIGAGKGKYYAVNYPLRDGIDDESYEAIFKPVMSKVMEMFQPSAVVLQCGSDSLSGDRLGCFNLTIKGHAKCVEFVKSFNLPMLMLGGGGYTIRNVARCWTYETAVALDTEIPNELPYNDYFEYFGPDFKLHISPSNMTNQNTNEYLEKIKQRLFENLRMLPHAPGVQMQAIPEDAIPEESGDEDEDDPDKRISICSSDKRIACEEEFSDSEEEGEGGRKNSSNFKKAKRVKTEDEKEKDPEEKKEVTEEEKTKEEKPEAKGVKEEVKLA
T3 sequence (O15379 whole entry): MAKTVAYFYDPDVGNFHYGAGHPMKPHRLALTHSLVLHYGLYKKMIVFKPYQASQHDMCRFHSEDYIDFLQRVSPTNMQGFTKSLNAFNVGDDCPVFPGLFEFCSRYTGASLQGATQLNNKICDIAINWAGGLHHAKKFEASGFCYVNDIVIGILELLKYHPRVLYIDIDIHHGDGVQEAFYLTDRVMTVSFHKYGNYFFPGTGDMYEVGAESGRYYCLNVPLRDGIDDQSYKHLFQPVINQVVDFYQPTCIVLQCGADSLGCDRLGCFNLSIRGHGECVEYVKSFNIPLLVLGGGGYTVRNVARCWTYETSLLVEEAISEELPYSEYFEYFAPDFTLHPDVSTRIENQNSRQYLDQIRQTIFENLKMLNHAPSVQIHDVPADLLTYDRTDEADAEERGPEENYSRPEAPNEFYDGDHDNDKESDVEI
T3 sequence (Q9Y618 389-480 partner limits assumed): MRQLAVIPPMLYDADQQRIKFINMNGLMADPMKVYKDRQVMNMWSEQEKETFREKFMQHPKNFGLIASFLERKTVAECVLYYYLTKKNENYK

CC[C@H](C)[C@H](NC(=O)[C@@H](NC(=O)[C@H](CC(N)=O)NC(C)=O)C(C)C)C(=O)N[C@@H](CCCNC(=N)N)C(=O)N[C@@H](CC(=O)O)C(=O)N[C@@H](C)C(=O)N[C@H](C(=O)N[C@H](C(=O)N[C@@H](Cc1ccc(O)cc1)C(=O)N[C@H](C(=O)N[C@@H](CCC(=O)O)C(=O)N[C@@H](Cc1c[nH]cn1)C(=O)N[C@@H](C)C(=O)N[C@@H](CCCCCC(=O)NO)C(=O)N[C@@H](CCCNC(=N)N)C(=O)N[C@@H](CCCCN)C(=O)N[C@@H](Cc1c[nH]c2ccccc12)C(N)=O)[C@@H](C)O)[C@@H](C)O)C(C)C [17a] (Ac-NVIRDAVTYTEHA[Asu](NHOH)RKW-NH2)
EC50 [1]: > 25.1 nM
EC50 [2]: 2 nM
EC50 [3]: 3.16 nM
EC50 [4]: > 25.1 nM
Ki [5]: 198 ± 1 nM
HDAC1 dose-response data (relative enzyme activity), Fig. 6 + S. Fig. 10 ([5]; log[inhibitor(M)] -4.30103): 2.18 and 2.15
HDAC1 dose-response data (relative enzyme activity), Fig. 6 + S. Fig. 10 ([5]; log[inhibitor(M)] -5): 8.98 and 8.99
HDAC1 dose-response data (relative enzyme activity), Fig. 6 + S. Fig. 10 ([5]; log[inhibitor(M)] -5.69897): 31.34 and 30.75
HDAC1 dose-response data (relative enzyme activity), Fig. 6 + S. Fig. 10 ([5]; log[inhibitor(M)] -6.39794): 69.51 and 67.92
HDAC1 dose-response data (relative enzyme activity), Fig. 6 + S. Fig. 10 ([5]; log[inhibitor(M)] -7.09691): 91.81 and 91.08
HDAC1 dose-response data (relative enzyme activity), Fig. 6 + S. Fig. 10 ([5]; log[inhibitor(M)] -7.79588): 100.43 and 97.85
HDAC1 dose-response data (relative enzyme activity), Fig. 6 + S. Fig. 10 ([5]; log[inhibitor(M)] -8.49485): 101.87 and 100.28
HDAC1 dose-response data (relative enzyme activity), Fig. 6 + S. Fig. 10 ([5]; log[inhibitor(M)] -9.19382): 101.68 and 99.1
HDAC1 dose-response data (relative enzyme activity), Fig. 6 + S. Fig. 10 ([5]; log[inhibitor(M)] -9.89279): 102.02 and 100.95
HDAC1 dose-response data (relative enzyme activity), Fig. 6 + S. Fig. 10 [5, 10]: 100,29* and 101,16*
HDAC2 dose-response data (relative enzyme activity), Fig. 6 + S. Fig. 10 ([6]; log[inhibitor(M)] -5): 11.53 and 14.13
HDAC2 dose-response data (relative enzyme activity), Fig. 6 + S. Fig. 10 ([6]; log[inhibitor(M)] -5.69897): 38.85 and 44.3
HDAC2 dose-response data (relative enzyme activity), Fig. 6 + S. Fig. 10 ([6]; log[inhibitor(M)] -7.79588): 99.37 and 102.1
HDAC2 dose-response data (relative enzyme activity), Fig. 6 + S. Fig. 10 [6, 10]: 100,76* and 101,65*
Ki ([6]; resynthesized peptide in solution, Cheng-Prusoff, n = 2): 183 ± 1 nM
Ki [7]: 90.7 ± 0.3 nM
HDAC3 dose-response data (relative enzyme activity), Fig. 6 + S. Fig. 10 ([7]; log[inhibitor(M)] -4.30103): 1.48 and 1.63
HDAC3 dose-response data (relative enzyme activity), Fig. 6 + S. Fig. 10 ([7]; log[inhibitor(M)] -5): 5.89 and 6.06
HDAC3 dose-response data (relative enzyme activity), Fig. 6 + S. Fig. 10 ([7]; log[inhibitor(M)] -5.69897): 20.29 and 20.52
HDAC3 dose-response data (relative enzyme activity), Fig. 6 + S. Fig. 10 ([7]; log[inhibitor(M)] -6.39794): 47.71 and 47.78
HDAC3 dose-response data (relative enzyme activity), Fig. 6 + S. Fig. 10 ([7]; log[inhibitor(M)] -7.09691): 75.88 and 76.54
HDAC3 dose-response data (relative enzyme activity), Fig. 6 + S. Fig. 10 ([7]; log[inhibitor(M)] -7.79588): 91.62 and 91.95
HDAC3 dose-response data (relative enzyme activity), Fig. 6 + S. Fig. 10 ([7]; log[inhibitor(M)] -8.49485): 95.02 and 96.22
HDAC3 dose-response data (relative enzyme activity), Fig. 6 + S. Fig. 10 ([7]; log[inhibitor(M)] -9.19382): 95.35 and 97.08
HDAC3 dose-response data (relative enzyme activity), Fig. 6 + S. Fig. 10 ([7]; log[inhibitor(M)] -9.89279): 93.78 and 97.79
HDAC3 dose-response data (relative enzyme activity), Fig. 6 + S. Fig. 10 [7, 10]: 97,93* and 99,33*
Ki [8]: 7640 ± 60 nM
HDAC8 dose-response data (relative enzyme activity, replicate values), Fig. 6 + S. Fig. 10 ([8]; Inhibitor conc [M] -8.49485 (log)): 101.42 and 103.54
HDAC8 dose-response data (relative enzyme activity, replicate values), Fig. 6 + S. Fig. 10 ([8]; Inhibitor conc [M] -9.19382 (log)): 101.25 and 102.69
HDAC8 dose-response data (relative enzyme activity, replicate values), Fig. 6 + S. Fig. 10 ([8]; Inhibitor conc [M] given as -7.09691 (log)): 100.44 and 104.26
HDAC8 dose-response data (relative enzyme activity, replicate values), Fig. 6 + S. Fig. 10 ([8]; Inhibitor conc [M] given as -7.79588 (log)): 103.27 and 103.5
HDAC8 dose-response data (relative enzyme activity, replicate values), Fig. 6 + S. Fig. 10 ([8]; Inhibitor conc [M] given as -9.89279 (log)): 103.01 and 103.7
HDAC8 dose-response data (relative enzyme activity, replicate values), Fig. 6 + S. Fig. 10 ([8]; Inhibitor conc [M] given as -10.585 (log)): 99,9* and 101,68*
HDAC8 dose-response data (relative enzyme activity), Fig. 6 + S. Fig. 10 ([8]; Inhibitor conc [M] -4.30103): 25.68 and 25
HDAC8 dose-response data (relative enzyme activity), Fig. 6 + S. Fig. 10 ([8]; Inhibitor conc [M] -5): 60.57 and 62.81
HDAC8 dose-response data (relative enzyme activity), Fig. 6 + S. Fig. 10 ([8]; Inhibitor conc [M] -5.69897): 94.41 and 91.83
HDAC8 dose-response data (relative enzyme activity), Fig. 6 + S. Fig. 10 ([8]; Inhibitor conc [M] -6.39794): 100.36 and 103.01
residual enzymatic activity relative to control wells ([9]; log[inhibitor(M)] -4.30103): 0.85 and 0.89
residual enzymatic activity relative to control wells ([9]; log[inhibitor(M)] -5): 2.67 and 3.1
residual enzymatic activity relative to control wells ([9]; log[inhibitor(M)] -5.69897): 11.05 and 12.51
residual enzymatic activity relative to control wells ([9]; log[inhibitor(M)] -6.39794): 38.36 and 40.68
residual enzymatic activity relative to control wells ([9]; log[inhibitor(M)] -7.09691): 72.92 and 74.07
residual enzymatic activity relative to control wells ([9]; log[inhibitor(M)] -7.79588): 92.5 and 90.62
residual enzymatic activity relative to control wells ([9]; log[inhibitor(M)] -8.49485): 97.52 and 97.55
residual enzymatic activity relative to control wells ([9]; log[inhibitor(M)] -9.19382): 99.98 and 98.59
residual enzymatic activity relative to control wells ([9]; log[inhibitor(M)] -9.89279): 98.46 and 98.12
residual enzymatic activity relative to control wells ([9]; log[inhibitor(M)] -10.585): 98,71* and 97,59*
